We go through 4 compounds from US20170298361A1, “USE OF AGENTS FOR TREATING FAT-RELATED DISORDERS” (Yeda Research and Development Co. Ltd., priority 2014, published 2017).

Entries after “also recorded” stand apart in the source; their conditions may differ. Peptide text beside a SMILES is read from it. * marks the point of attachment. Cbz = O=C(OCc1ccccc1)*

Data set [1] has as its system HA-PPARγ1.
Data set [2] concerns PPARγ2 P12A variant.
The subject of data set [3] is PPARγ2 (wild type, Flag-tagged).
Data set [4] concerns PPARγ2. Briefly: PPARγ2 accumulation after proteasomal inhibition in c-Abl-depleted 3T3-L1 cells (immunoblotting). The class given is cell-based, mouse. The conditions noted are these: c-Abl-depleted 3T3-L1, day 5 of differentiation, 25 μg MG-132, lysed after 5 h. How it is done: FIGS. 2A-C illustrate that c-Abl prolongs PPARγ2 half-life. (A) Proteasomal inhibition in mid-differentiation results in PPARγ2 accumulation. 3T3-L1 cells expressing shRNA to GFP (control) or c-Abl were induced to differentiate using insulin, dexamethasone and IBMX. On day 5, cells were treated with 25 μg MG-132 and lysed after 5 h. Protein levels were analyzed by immunoblotting. (B) c-Abl stabilizes PPARγ2. HEK293 cells were transfected with plasmids expressing HA-PPARγ2 with or without active c-Abl. Twenty-four hours after transfection, cells were treated with 20 μg/ml cycloheximide for different time points. […] The ratio between immunoprecipitated poly-ubiquitinated PPARγ2 ladder and PPARγ2 protein level from 3 independent experiments was quantified (*** −p<0.005).
The present inventors investigated whether c-Abl might play a role in PPARγ2 accumulation. […] Next, the present inventors measured PPARγ2 protein half-life in the presence or absence of an active form of c-Abl (41-81 c-Abl). […] To investigate the possibility that c-Abl supports PPARγ2 stabilization via inhibition of the poly-ubiquitination of PPARγ2, an octameric tandem fusion of HA-tagged ubiquitin was co-expressed together with Flag-tagged PPARγ2 with or without active c-Abl and the pattern of the poly-ubiquitinated PPARγ2 ladder was analyzed.
For orientation: Immunoblotting shows a protein as a band on a membrane.

For data set [5], the system named is mesenchymal stromal cells. The conditions noted are these: Fitter S, et al. (2008); cited from earlier work.
Data set [6] concerns 3T3-L1 cells. Briefly: Adipocyte differentiation of 3T3-L1 cells, oil red O staining. Format: cell-based, mouse. As to the method: FIGS. 1A-E illustrate that c-Abl is required for adipocyte differentiation. (A) c-Abl activity increases during adipogenesis. 3T3-L1 adipoblasts were induced to differentiate with medium containing 5 μg/ml Insulin, 1 μM Dexamethasone and 0.5 mM IBMX. Cells were lysed at the indicated times and protein levels were analyzed by Western blotting. The proteasomal subunit PSMA4 served as a loading control. […] Cells were stained with oil red O and photographed at day 8. (C) c-Abl is required in adipocyte differentiation. 3T3-L1 expressing shRNA against either GFP or c-Abl were induced to differentiate and stained with oil red 0 at day 10. (D) c-Abl is required for expression of PPARγ and its target genes during adipogenesis. 3T3-L1 cells expressing shRNA against either GFP or c-Abl were induced to differentiate as in (A). Cells were lysed at the indicated times and protein levels were analyzed by Western blotting. (E) c-Abl is required for transcription of PPARγ pro-adipogenic target genes but not for transcription of PPARγ itself. At day 4 of differentiation, RNA from 3T3-L1 cells was analyzed for mRNA expression of the indicated genes by quantitative PCR.
FIG. 15 are photographs illustrating differentiation of 3T3-L1 preadipocytes with or without Chk1 inhibitor, UCN-01. […]

In data set [7] the test system is CML patients. To be noted: Fitter S, et al. (2010); cited from earlier work.

As to c-Abl Δ1-81 (active form of c-Abl), the “tyrosine phosphorylation detected with anti-phosphotyrosine antibody (PY20) after immunoprecipitation using anti-HA beads” value in data set [1] was “HA-PPARγ1 was only poorly phosphorylated by c-Abl”. In addition, in data set [2], the “tyrosine phosphorylation detected with anti-phosphotyrosine antibody (PY20) after immunoprecipitation using anti-Flag beads” value was “the P12A variant was inefficient in binding to c-Abl and in undergoing phosphorylation by the kinase”. Moreover, the “tyrosine phosphorylation of PPARγ2 detected with anti-phosphotyrosine antibody (PY20) after immunoprecipitation” value in data set [3] is “unlike HA-PPARγ2, HA-PPARγ1 was only poorly phosphorylated by c-Abl (FIG. 3D). Similar results were obtained using Flag-PPARγ2”.

Take `CC(C)C[C@@H](C=O)NC(=O)[C@H](CC(C)C)NC(=O)[C@H](CC(C)C)NC(=O)OCc1ccccc1` [MG-132] (Cbz-Leu-Leu-Leu-aldehyde): in data set [4], the PPARγ2 protein level result is “markedly increased”.

Consider `Cc1ccc(NC(=O)c2ccc(CN3CCN(C)CC3)cc2)cc1Nc1nccc(-c2cccnc2)n1` [STI-571, imatinib], for which the “adipocytic differentiation of mesenchymal stromal cells” value in data set [5] is recorded as “promote adipocytic differentiation”. Also, the “adipogenesis (adipocyte differentiation)” value in data set [6] (3T3-L1 induced with insulin, dexamethasone, IBMX, STI-571 added 7 hours after differentiation onset until day 5, oil red O at day 8, even at low inhibitor concentration) is given as “markedly reduced; also recorded: inhibits adipocyte differentiation”. In data set [7], the fat accumulation entry is recorded as “associated with fat accumulation” and the insulin sensitivity entry was “improved insulin sensitivity”.

For the compound `CN[C@@H]1C[C@H]2O[C@@](C)([C@@H]1OC)n1c3ccccc3c3c4c(c5c6ccccc6n2c5c31)C(=O)N[C@@H]4O` [UCN-01], the “differentiation of 3T3-L1 preadipocytes” value in data set [6] (with or without Chk1 inhibitor UCN-01 (FIG. 15)) is “completely inhibit”.
